Assay results published in patent US12728119B2, “Pharmaceutical composition for preventing or treating cancer comprising 3-ketoacyl CoA thiolase inhibitor and carnitine acylcarnitine carrier inhibitor” (NATIONAL CANCER CENTER, priority 2020, dated 2026).
Several values for one entry are separate records, joined by “and”; a condition that tells them apart may be missing. Identical values can stand only once.

Tests used:
Format in all cases: cell-based
[1] = system: Panc-1 pancreatic cancer cells; test: SRB analysis 2; conditions: 48 hours
[2] = system: SW1990 pancreatic cancer cells; test: SRB analysis 2; conditions: 48 hours
A375 melanoma cell line = test: SRB analysis 3; conditions: 48 hours
How it was run: (§1)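 Growth effect of combined CAC inhibitor omeprazole, ACAA inhibitor trimetazidine and a third anticancer drug is measured by sulforhodamine B staining over 48 h exposure. Values are GI50, TGI or LC50 from triplicate runs.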

[3] = system: A549 non-small cell lung cancer (NSCLC) cell line; test: SRB analysis 3; conditions: 48 hours
How it was run: as §1

[4] = system: ACHN renal cancer cell line; test: SRB analysis 3; conditions: 48 hours
How it was run: as §1

[5] = system: AGS gastric cancer cell line; test: SRB analysis 3; conditions: 48 hours
How it was run: as §1

[6] = system: AsPC-1 pancreatic cancer (PDAC) cell line; test: SRB analysis 3; conditions: 48 hours
How it was run: as §1

[7] = system: COLO-205 colon cancer cell line; test: SRB analysis 3; conditions: 48 hours
How it was run: as §1

[8] = system: Caki-1 renal cancer cell line; test: SRB analysis 3; conditions: 48 hours
How it was run: as §1

[9] = system: DU145 prostate cancer cell line; test: SRB analysis 3; conditions: 48 hours
How it was run: as §1

[10] = system: H1975 non-small cell lung cancer (NSCLC) cell line; test: SRB analysis 3; conditions: 48 hours
How it was run: as §1

[11] = system: HCT-116 colon cancer cell line; test: SRB analysis 3; conditions: 48 hours
How it was run: as §1

[12] = system: Huh-7 liver cancer cell line; test: SRB analysis 3; conditions: 48 hours
How it was run: as §1

[13] = system: MCF7 breast cancer cell line; test: SRB analysis 3; conditions: 48 hours
How it was run: as §1

[14] = system: MDA-MB-231 breast cancer cell line; test: SRB analysis 3; conditions: 48 hours
How it was run: as §1

[15] = system: MIA PaCa-2 pancreatic cancer (PDAC) cell line; test: SRB analysis 3; conditions: 48 hours
How it was run: as §1

[16] = system: MKN45 gastric cancer cell line; test: SRB analysis 3; conditions: MKN45, 48 hours
How it was run: as §1

[17] = system: OVCAR-8 ovarian cancer cell line; test: SRB analysis 3; conditions: 48 hours
How it was run: as §1

[18] = system: PC-3 prostate cancer cell line; test: SRB analysis 3; conditions: 48 hours
How it was run: as §1

[19] = system: SK-OV-3 ovarian cancer cell line; test: SRB analysis 3; conditions: 48 hours
How it was run: as §1

[20] = system: SK-hep-1 liver cancer cell line; test: SRB analysis 3; conditions: 48 hours
How it was run: as §1

[21] = system: UACC62 melanoma cell line; test: SRB analysis 3; conditions: 48 hours
How it was run: as §1

In the case of `COc1ccc2[nH]c([S+]([O-])Cc3ncc(C)c(OC)c3C)nc2c1` (centres unmarked) [KN510, omeprazole], the “degree of cell growth based on the control (100%)” value (shortened to “degree … (100%)”) ([1]; KN510 100 μM) is reported as 63.06%, the “degree … (100%)” value ([1]; KN510 200 μM) is reported as 19.45% and the “degree … (100%)” value ([2]; KN510 100 μM) is reported as 90.16%. For the same compound, the “degree … (100%)” value ([2]; KN510 200 μM) was 63.83%, the “cell growth (Control = 100)” value (A375 melanoma cell line; KN510 100 μM) was 79.18 and the “cell growth (Control = 100)” value ([3]; KN510 100 μM) was 55.4 and 30.1. The “cell growth (Control = 100)” value ([4]; KN510 100 μM) was 61.17, the “cell growth (Control = 100)” value ([5]; KN510 100 μM) was 65.05 and the “cell growth (Control = 100)” value ([6]; KN510 100 μM) was 65.83. The “cell growth (Control = 100)” value ([7]; KN510 100 μM) was 78.03, the “cell growth (Control = 100)” value ([8]; KN510 100 μM) was 102.1283 and the “cell growth (Control = 100)” value ([9]; KN510 100 μM) was 76.71. For the same compound, the “cell growth (Control = 100)” value ([10]; KN510 100 μM) was 84.1319, the “cell growth (Control = 100)” value ([11]; KN510 100 μM) was 79.65 and the “cell growth (Control = 100)” value ([12]; KN510 100 μM) was 77.73. The “cell growth (Control = 100)” value ([13]; KN510 100 μM) was 70.3, the “cell growth (Control = 100)” value ([14]; KN510 100 μM) was 86.99 and the “cell growth (Control = 100)” value ([15]; KN510 100 μM) was 65.94. For the same compound, the “cell growth (Control = 100)” value ([16]; KN510 100 μM) was 62.39, the “cell growth (Control = 100)” value ([17]; KN510 100 μM) was 68.75 and the “cell growth (Control = 100)” value ([18]; KN510 100 μM) was 59.63. The “cell growth (Control = 100)” value ([19]; KN510 100 μM) was 85.06, the “cell growth (Control = 100)” value ([20]; KN510 100 μM) was 60.38 and the “cell growth (Control = 100)” value ([21]; KN510 100 μM) was 50.83.
With `COc1ccc(CN2CCNCC2)c(OC)c1OC` [KN713, trimetazidine] the “cell growth (Control = 100)” value (A375 melanoma cell line; KN713 2.5 mM) was 70.33, the “cell growth (Control = 100)” value ([3]; KN713 2.5 mM) was 68.8 and 79.2 and the “cell growth (Control = 100)” value ([4]; KN713 2.5 mM) was 65.67. The “cell growth (Control = 100)” value ([5]; KN713 2.5 mM) was 60.34, the “cell growth (Control = 100)” value ([6]; KN713 2.5 mM) was 58.71 and the “cell growth (Control = 100)” value ([7]; KN713 2.5 mM) was 31.62. The “cell growth (Control = 100)” value ([8]; KN713 2.5 mM) was 47.58, the “cell growth (Control = 100)” value ([9]; KN713 2.5 mM) was 55.68 and the “cell growth (Control = 100)” value ([10]; KN713 2.5 mM) was 62.58. For the same compound, the “cell growth (Control = 100)” value ([11]; KN713 2.5 mM) was 36.64, the “cell growth (Control = 100)” value ([12]; KN713 2.5 mM) was 52.09 and the “cell growth (Control = 100)” value ([13]; KN713 2.5 mM) was 60.36. For the same compound, the “cell growth (Control = 100)” value ([14]; KN713 2.5 mM) was 74.5469, the “cell growth (Control = 100)” value ([15]; KN713 2.5 mM) was 39.45 and the “cell growth (Control = 100)” value ([16]; KN713 2.5 mM) was 72.85. The “cell growth (Control = 100)” value ([17]; KN713 2.5 mM) was 72.86, the “cell growth (Control = 100)” value ([18]; KN713 2.5 mM) was 45.06 and the “cell growth (Control = 100)” value ([19]; KN713 2.5 mM) was 83.37. For the same compound, the “cell growth (Control = 100)” value ([20]; KN713 2.5 mM) was 157.7818 and the “cell growth (Control = 100)” value ([21]; KN713 2.5 mM) was 54.65.
